Like-named read-outs stand apart in the source and are kept apart here.
Assays:
A2780/cp70 cells = test: Clonogenic survival in A2780/cp70 (MMR-deficient) ovary carcinoma cells; assay type: cell-based, human
Experimental: (§1) FIG. 1. Effect of Methoxyamine (MX) on cytotoxicity induced by IUDR in human A2780/cp70 (MMR-deficient) and […]) ovary carcinoma cell lines. Cells were treated for 48 hours with IUDR alone or with IUDR and 6 mM Methoxyamine. Surviving colonies were counted in triplicate 7-10 days after treatment. Error bars, Standard Error. FIG. 5. Effect of Methoxyamine (MX) on cytotoxicity induced by FaraA in human A2780/cp70 (MMR-deficient) and […]) ovary carcinoma cell lines. Cells were treated for 48 hours with FaraA alone or with FaraA and 6 mM Methoxyamine. Surviving colonies were counted in triplicate 7-10 days after treatment. Error bars, Standard Error. For clonogenic survival studies in A2780/cp70 and […], exponentially growing cells were similarly diluted and plated in complete RPMI 1640 medium (+400 μg/ml Hygromycin in […]). […] IUDR-containing medium was then removed in cell populations, cultures were washed with PBS and incubated at 37° C. for 7-10 days in tissue culture medium containing 10% defined FBS (+dThd). Cell populations were treated simultaneously with IUDR and 6 mM Methoxyamine (MX) (Sigma, St Louis, Mo.) for 48 hours; plates were then washed with PBS and surviving colonies were counted after incubation at 37° C. in drug-free medium for 7-10 days.

EM9 cells = test: FaraA cytotoxicity in XRCC1 mutant EM9 CHO cells; assay type: cell-based
Experimental: (§2) FIG. 3. Effect of Methoxyamine (MX) on cytotoxicity induced by FaraA in CHO cells proficient or deficient in Xrcc1 protein. Cells were treated for 24 hours with FaraA alone or with FaraA and 6 mM Methoxyamine. Surviving colonies were counted in triplicate 7-10 days after treatment and the experiment was repeated three times. Error bars, Standard Error.
(§3) AA8 and EM9 cells were obtained from the American Tissue Culture Collection (Manassas, Va.). H9T3 cells were a gift of Dr. L. H. Thompson (Lawrence Livermore National Laboratory, Livermore, Calif.). The parental CHO line clone AA8 was isolated as being heterozygous at the aprt locus; the mutant EM9 clone was isolated from AA8 cells following mutagenesis with EMS and carry a frameshift mutation in the XRCC1 gene resulting in a truncated polypeptide lacking two thirds of the normal sequence. […] H9T3-7-1 cells (referred in the text as H9T3) were derived from EM9 following transfection with a cosmid containing XRCC1 cDNA which corrects the DNA repair defect of EM9.
(§4) We tested whether MX, a small molecule known to be BER inhibitor, could sensitize CHO cells to FaraA cytotoxicity.

HCT116/3-6 cells = test: Clonogenic survival in HCT116/3-6 (MMR-proficient) colon carcinoma cells; assay type: cell-based, human; settings: for IC50: Homo sapiens, HCT-116, 24 hours
Experimental: (§5) FIG. 2. […] Cells were treated for 48 hours with IUDR alone (closed symbols) or with IUDR and 6 mM Methoxyamine (open symbols). Surviving colonies were counted in triplicate 7-10 days after treatment. Error bars, Standard Error. FIG. 4. […] Cells were treated for 24 hours with FaraA alone or with FaraA and 6 mM Methoxyamine. Surviving colonies were counted in triplicate 7-10 days after treatment. Error bars, Standard Error. The human colon cancer cell line HCT116 lacks MLH1 expression and their MMR positive subline (HCT116/chr 3-6) has hMLH1 reintroduced by chromosome 3 transfer. For clonogenic survival studies in HCT116 and HCT116/3-6 cells, exponentially growing cells were similarly diluted and plated in complete D-MEM medium (+400 μg/ml G418 in HCT116/3-6 cells). […] IUDR-containing medium was then removed in HCT116 cell populations, cultures were washed with PBS and incubated at 37° C. for 7-10 days in tissue culture medium containing 10% defined FBS (+dThd). HCT116 cell populations were treated simultaneously with IUDR and 6 mM Methoxyamine (MX) (Sigma, St Louis, Mo.) for 48 hours; plates were then washed with PBS and surviving colonies were counted after incubation at 37° C. in drug-free medium for 7-10 days.

HCT116 cells [1] = test: Clonogenic survival in HCT116 (MMR-deficient) colon carcinoma cells; assay type: cell-based, human
Experimental: as §5

[2] = system: human colon and brain cancer xenograft models; settings: daily p.o. dosing of IPDR for 6 or 14 days; human colon and brain cancer xenografts; cited from earlier work
[3] = daily p.o. dosing of IPDR for 6 or 14 days; nude mice; cited from earlier work
[4] = Plasma levels of IPDR in athymic mice; assay type: in vivo; settings: 250 mg/kg ip; samples 0-350 min; athymic mice with U87 MG tumors
Experimental: Athymic mice are treated with MX-IPDR or IPDR. Tumor fragment of about 2×2×2 mm derived from Human U87 MG Glioma Cells are implanted s.c. into the axilliary region of the mice. The mice are then treated ip with MX-IPDR at 250 mg/kg or IPDR at 250 mg/kg and samples taken at 0, 2, 5, 15, 45, 75, 120, 150, 210 and 350 min after treatment. The IPDR plasma levels are determined as previously reported by Kinsella et al. {Kinsella, 2000 #121}.

A2780/cp70+chr3 cells = test: Clonogenic survival in A2780/cp70+chr3 (MMR-proficient) ovary carcinoma cells; assay type: cell-based, human
Experimental: as §1

HCT116 cells [5] = test: Clonogenic survival of HCT116 with poly IUDR and IUDR (Example 8); assay type: cell-based, human; settings: 1, 3, 10 μM for 48 hours
Experimental: Human colon cells (HCT 116) are treated with poly IUDR, an oligonucleotide comprised of IUDR, and IUDR. For clonogenic survival studies in HCT116, exponentially growing cells are similarly diluted and plated in complete D-MEM medium (+400 μg/ml G418 in HCT116/3-6 cells). Poly IUDR and IUDR treatment (1, 3, 10 μM) in HCT116 is for 48 hours in D-MEM (-G418) medium containing 10% dialyzed FBS, and the drug-containing medium is replaced after the initial 24 hours. Compound-containing medium is then removed from the HCT116 cell cultures, the cultures are washed with PBS, and incubated at 37° C. for 7-10 days in tissue culture medium containing 10% defined FBS (+dThd). Surviving colonies are counted after incubation at 37° C. in drug-free medium for 7-10 days.

[6] = system: Human MDA-MB-231 breast cancer cells; test: MDA-MB-231 breast cancer xenografts in athymic mice, with Doxorubicin; assay type: in vivo; settings: MDA-MB-231 xenograft; i.p. days 1-5, 3 cycles; all mice also Doxorubicin 1.5 mg/kg day 4; measured at day 49
Experimental: FIG. 6. Effect of Rad51 antisense on tumor growth delay induced by Doxorubicin on Human MDA-MB-231 Breast cancer cells grown as xenografts in Athymic Mice. The mice were treated i.p. with Rad51 antisense at 5 mg/kg on days 1 through 5, MX at 2 mg/kg on days 1 through 5, and with Doxorubicin at 1.5 mg/kg on day 4. The cycle was repeated three times with a two-day rest period between cycles.
(§6) Athymic mice are treated with Rad51 antisense alone, MX alone, and Rad51 antisense in combination with MX. All mice are also treated with Doxorubicin. Tumor fragment of about 2×2×2 mm derived from Human MDA-MB-231 breast cancer cells Athymic mice are implanted s.c. into the axilliary region of the mice. The mice are treated i.p. with Rad51 antisense at 5 mg/kg on days 1 through 5, MX at 2 mg/kg on days 1 through 5, and Doxorubicin at 1.5 mg/kg on day 4. The cycle is repeated three times with a two-day rest period between cycles. The animals are euthanatized 49 days after the beginning of the experiment, and the tumor size is measured by calipers.

[7] = system: wild type and Polβ-complemented mouse fibroblasts; settings: cited from earlier work
[8] = system: Human U87 MG glioma cells; test: U87 MG glioma xenografts in athymic mice, with IPDR; assay type: in vivo; settings: U87 MG xenograft; i.p. days 1-5, 3 cycles; all mice also IPDR 250 mg/kg day 4; measured at day 49
Experimental: as §6, with “IPDR.” for “Doxorubicin.”, “U87 MG glioma” for “MDA-MB-231 breast cancer”, “cells” for “cells Athymic mice”, “IPDR” for “Doxorubicin”, “250” for “1.5”

AA8 cells = test: FaraA cytotoxicity in wild type AA8 CHO cells; assay type: cell-based; settings: 6 mM MX
Experimental: as §2, §3, §4

H9T3 cells = test: FaraA cytotoxicity in XRCC1 reconstituted H9T3 CHO cells; assay type: cell-based; settings: 6 mM MX
Experimental: as §2, §3, §4

[9] = IUDR 48 hours, colonies counted after 7-10 days, read-out: IC50 for IUDR alone

Nc1nc(F)nc2c1ncn2[C@@H]1O[C@H](CO)[C@@H](O)[C@@H]1O [FaraA, Fludarabine]
IC50 (A2780/cp70 cells; Homo sapiens, FaraA + 6 mM MX, 48 hours, read-out: IC50 for FaraA with 6 mM MX): 4 µM | IC50 (A2780/cp70 cells; Homo sapiens, FaraA alone, 48 hours, read-out: IC50 for FaraA alone): 11 µM | IC50 (EM9 cells; Cricetulus griseus, CHO, XRCC1 mutant EM9 cells, FaraA alone, 24 hours): 7.5 µM | IC50 (HCT116/3-6 cells; HCT116/3-6 cells, FaraA + 6 mM MX, read-out: IC50 for FaraA in the presence of 6 mM MX): 3 µM | IC50 (HCT116/3-6 cells; HCT116/3-6 cells, FaraA alone, read-out: IC50 for FaraA): 5 µM | IC50 (HCT116 cells [1]; Homo sapiens, HCT-116, FaraA + 6 mM MX, 24 hours, read-out: IC50 for FaraA with 6 mM MX): 3 µM | IC50 (HCT116 cells [1]; Homo sapiens, HCT-116, FaraA alone, 24 hours, read-out: IC50 for FaraA treatment): 9 µM

O=c1ncc(I)cn1[C@H]1C[C@H](O)[C@@H](CO)O1 [IPDR, 5-iodo-2-pyrimidinone-2′-deoxyribose]
Tumor radiosensitization [2]: significant radiosensitization | Systemic toxicity [3]: no significant systemic toxicity | Plasma IPDR levels required to act as a radiosensitizer [4]: acceptable level

O=c1[nH]c(=O)n([C@H]2C[C@H](O)[C@@H](CO)O2)cc1I [IUDR, IodoUridineDeoxyRibose]
IC50 (A2780/cp70 cells; [9]): 8 µM | IC50 (A2780/cp70 cells; IUDR + 6 mM MX for 48 hours, read-out: IC50 for IUDR with MX treatment): 1 µM | Response to IUDR alone and to MX+IUDR compared with A2780/cp70 (A2780/cp70+chr3 cells; MMR positive subline A2780/cp70 chr3): qualitatively similar | Response to IUDR alone and to MX+IUDR compared with HCT116 (HCT116/3-6 cells; MMR positive subline HCT116/chr3-6): qualitatively similar | IC50 (HCT116 cells [1]; [9]): 4.5 µM | IC50 (HCT116 cells [1]; IUDR + MX for 48 hours (method 6 mM MX, result sentence 12 mM MX), read-out: IC50 for IUDR with MX treatment): 0.5 µM | Cytotoxicity in clonogenic survival (HCT116 cells [5]): greatly sensitized

CON [MX, Methoxyamine]
Sensitization to IUDR-induced cytotoxicity by MX (A2780/cp70 cells; 6 mM MX, 48 hours): greatly sensitized | Sensitization to FaraA by MX (EM9 cells; EM9 cells, 6 mM MX): further sensitized | Tumor size and tumor cell killing [6]: Reduction in tumor size and tumor cell killing | Sensitization to the cytotoxicity of Ganciclovir [7]: sensitized | Sensitization to IUDR-induced cytotoxicity by MX (A2780/cp70+chr3 cells; cp70/ch3 cells, 6 mM MX, 48 hours): greatly sensitized | Tumor size and tumor cell killing [8]: Reduction in tumor size and tumor cell killing | Sensitization to IUDR-induced cytotoxicity by MX (HCT116/3-6 cells; HCT116/3-6 cells, 12 mM MX as printed): greatly sensitized | Sensitization to FaraA by MX (AA8 cells): significantly sensitized | Sensitization to IUDR-induced cytotoxicity by MX (HCT116 cells [1]; 12 mM MX as printed): greatly sensitized | Sensitization to FaraA by MX (H9T3 cells): significantly sensitized
